# Patent US10813905B2, “Methods of treating sickle cell disease and related disorders using fumaric acid esters” (Augusta University Research Institute, Inc., priority 2012, dated 2020)
# Structures can show the parent of a compound that is named as a salt.
# Tests used:
# [1] = test system: small intestinal cell model; conditions: cited from earlier work
# [2] = test system: HbF in primary human erythroid cells; test: FACS of HbF positive cells in primary human erythroid progenitors; format: cell-based; conditions: DMF 200 μM, MMF 1000 μM, HU 100 μM
# Description: HU (100 μM; Sigma) was included as a positive control and cell viability was monitored by trypan blue exclusion. Findings in KU812 cells were confirmed in human primary erythroid progenitor cells grown in liquid culture using a published protocol. Globin expression was measured by qPCR also as previously published. HbF protein was measured relative to that of isotype control using FITC conjugated anti-human HbF antibody (1:1000; Santa Cruz Biotechnology, Santa Cruz, Calif.) and fluorescence activated cell sorting (see supplemental methods for details). HbF protein expression was confirmed by Western blot analysis using anti-human HbF antibody (1:1000; Bethyl Laboratories, Inc., Montgomery, Tex.) and horseradish peroxidase-conjugated sheep IgG (1:1000; Santa Cruz).
# Erythroid progenitors were generated in vitro from adult CD34^+ stem cells ([…] technologies, Inc. Vancouver, Canada) using a 2-stage culture system that achieves terminal erythroid differentiation18. CD34^+ stem cells (500,000) were grown in First medium consisting of Iscove Modified Dulbecco Media containing human AB serum, interleukin-3 (10 ng/mL), stem cell factor (10 ng/mL) and erythropoietin (2 IU/mL). On day 7, the erythroblasts were placed in Second medium with 2 IU/mL erythropoietin for the duration. […] Then cells were harvested for total RNA and protein for qPCR, FACS and western blot analyses.
# After drug treatments, 500,000 cells were washed twice with phosphate buffered saline and then fixed in 4% paraformaldehyde and permeated with ice-cold acetone/methanol (4:1). Cells were incubated with anti-γ-globin-FITC antibody (Santa Cruz Biotechnology, Santa Cruz, Calif.) in PBT (PBS/01% BSA/0.1% triton X100) solution for 20 min to stain intracellular HbF antigens. The labeled cells were analyzed by Bectin Dickerson LSR-II flow cytometer (BD Bioscience). All experiments were performed in triplicate.
# γ-globin promoter = test: KU812 dual-luciferase reporter assay of γ-globin promoter activity; format: cell-based, human; conditions: for concentration of maximal induction of γ-globin promoter activity: 0-1000 μM, 48 h
# Source text: (§1) KU812 stable cell lines were created by co-transfecting wild-type KU812 cells with pEGFP-NI (G418 selectable marker) and the μLCRβprRluc AγprFluc dual reporter a kind gifts from Dr. George Stamatoyannopoulos (University of Washington). Briefly, the 315-bp human β-globin gene promoter sequence was inserted upstream of the Renilla along with a polyadenylation signal downstream to create PβprRluc. Likewise, 1.4 kb of human aγ-globin promoter was inserted upstream of firefly luciferase to create AγprFluc. The μLCR (locus control region), PβprRluc, and AγprFluc fragments were subsequently cloned into the mammalian vector, pRL-null. The dual-luciferase reporter lines were produced using 10 μg each of linearized μLCRβprRluc AγprFluc and pEGFP-NI plasmids co-transfected into KU812 cells by electroporation at 260 V, 975 μF (Bio-Rad, Hercules Calif.). After 72 hr, G418 was added at a concentration of 900 μg/μl for 3 days then maintained under selection pressure indefinitely at a concentration of 400 μg/μl. […] FK228 and analogues were screened at concentrations between 1-1000 nM for 48 hr and cell toxicity was monitored by 2% Trypan blue exclusion. The effect of drug treatments on γ-globin and β-globin promoter activity was monitored by luciferase assay.
# Luciferase activity was monitored under the different experimental conditions using the Dual Luciferase Assay Reporter System (Promega, Madison, Wis.). The activity of firefly luciferase represents γ-globin promoter activity (γF), while the renilla luciferase is the read-out for β-globin promoter activity (βR). […] After drug treatments, KU812 stable cells were washed with 1× phosphate buffered saline and lysed in 1× Passive Lysis Buffer for 15 min, then protein extracts were added to the Luciferase Assay Reagent II and firefly luciferase activity quantified in a Turner Designs TD-20/20 luminometer (Sunnyvale, Calif.). […] Total protein was determined by Bradford assay on a Beckman DU 640 spectrophotometer (Chaska, Minn.) and luciferase activity was corrected for total protein. […]
# KU812 cells = format: cell-based; conditions: human, 48 h
# Source text: as §1, with “pRL-null.” for “pRL-null. The dual-luciferase reporter lines were produced using 10 μg each of linearized μLCRβprRluc AγprFluc and pEGFP-NI plasmids co-transfected into KU812 cells by electroporation at 260 V, 975 μF (Bio-Rad, Hercules Calif.). After 72 hr, G418 was added at a concentration of 900 μg/μl for 3 days then maintained under selection pressure indefinitely at a concentration of 400 μg/μl.”
# Luciferase activity, an indicator of γ-globin promoter induction, was monitored KU812 μLCRβprRlucγprFluc—stable cells cultured in the presence of absence (untreated control, UT) of MMF at varying dosages for 48 hour according to the method discussed above and in MaKala et al., Anemia, Volume 2012, Article ID 428137) (2012).
# HU (100 μM; Sigma) was included as a positive control and cell viability was monitored by trypan blue exclusion. […] Globin expression was measured by qPCR also as previously published. […]
# [3] = test system: γ-globin gene expression in KU812 cells; test: γ-globin gene expression by qPCR in KU812 cells; format: cell-based, human; conditions: 100 μM, depending upon the incubation time (3-24 h)
# Description: KU812 cells were cultured in the presence or absence of MMF for time periods ranging from 0-24 hours and evaluated for changes in γ-globin gene expression relative to 18S ribosomal RNA expression (internal experimental control) by qPCR (FIG. 1). In comparison to control, untreated (UT) cells, significant increases in γ-globin gene expression were observed as early as 3 hours post-incubation with low-does (100 μM) MMF treatment. This MMF-induced increase in γ-globin expression persisted up to 24 h post-exposure to the compound. Data in FIG. 1 are represented as means±standard error of the mean (SEM); *P<0.05, **P<0.01 and ***P<0.001.
# FIG. 2 is reproduced from MaKala et al., Anemia, Volume 2012, Article ID 428137) (2012). […] At 100 μM, the same concentration that we used for MMF, HU induces γ-globin gene expression ˜2-fold.
# [4] = test system: γ/β-globin mRNA in primary human erythroid cells; test: γ/β-globin mRNA by qPCR in primary human erythroid progenitors; format: cell-based; conditions: DMF 200 μM, MMF 1000 μM
# Description: HU (100 μM; Sigma) was included as a positive control and cell viability was monitored by trypan blue exclusion. Findings in KU812 cells were confirmed in human primary erythroid progenitor cells grown in liquid culture using a published protocol. Globin expression was measured by qPCR also as previously published. HbF protein was measured relative to that of isotype control using FITC conjugated anti-human HbF antibody (1:1000; Santa Cruz Biotechnology, Santa Cruz, Calif.) and fluorescence activated cell sorting (see supplemental methods for details). HbF protein expression was confirmed by Western blot analysis using anti-human HbF antibody (1:1000; Bethyl Laboratories, Inc., Montgomery, Tex.) and horseradish peroxidase-conjugated sheep IgG (1:1000; Santa Cruz). Erythroid progenitors were generated in vitro from adult CD34^+ stem cells ([…] technologies, Inc. Vancouver, Canada) using a 2-stage culture system that achieves terminal erythroid differentiation18. CD34^+ stem cells (500,000) were grown in First medium consisting of Iscove Modified Dulbecco Media containing human AB serum, interleukin-3 (10 ng/mL), stem cell factor (10 ng/mL) and erythropoietin (2 IU/mL). On day 7, the erythroblasts were placed in Second medium with 2 IU/mL erythropoietin for the duration. […] Then cells were harvested for total RNA and protein for qPCR, FACS and western blot analyses.
# [5] = test system: γ-globin gene expression in primary RPE cells; test: γ-globin/HbF expression in primary RPE cells from humanized mice; format: cell-based, mouse; conditions: ARPE-19 and primary RPE cells (FIGS. 8B, 8D, 8E, 11)
# Description: The effect of MMF on primary RPE cells was also investigated. RPE cells were isolated from the eyes of humanized mice and used to establish primary RPE cell cultures. […] Primary RPE cells were cultured in the presence or absence of MMF at concentrations ranging from 0-1000 μM for a period of 9 hours. Total RNA was prepared and γ-globin gene expression analyzed by qPCR. […] Data are represented as mean±SEM; *P<0.01, **P<0.001.
# Identical experiments were performed using the human RPE cell line ARPE-19, an established model for the study of RPE19, and primary RPE cell cultures established from the eyes of HbAA- and HbSS-expressing Townes humanized knock-in SCD mice (Jackson Laboratories, Bar Harbor, Me.) per our published method. Additionally, MMF (1 mM final concentration) or PBS (control) was injected intravitreally into the eyes of HbAA and HbSS mice and retinal γ-globin and HbF expression analyzed by qPCR and immunofluorescence 24 h post-injection. Animal studies were approved by the Georgia Regents University Institutional Committee for Animal Use in Research and Education.
# HbF protein production in ARPE-19 cells exposed to MMF (1000 μM) for 24 h was evaluated using a FITC-conjugated HbF antibody and fluorescence microscopy (data not shown). Cell nuclei were counterstained with DAPI. […]
# OCTN1 = OCTN1 mRNA expression in ARPE-19 cells; format: cell-based, human; conditions: RPE (ARPE-19) cells; MMF 1000 μM, HU 100 μM
# Source text: Red blood cells, cells of erythroid lineage, are the primary producers of hemoglobin. […] The includes retinal pigment epithelial (RPE) cells, a cell type critical to normal visual function. […] Data are represented as mean±SEM; *p<0.05.
# [6] = single doses, healthy adults, cited from earlier work
compound,measurement,setting,value
"COC(=O)/C=C/C(=O)OC [DMF, dimethyl fumarate]",permeability,[1]; in vitro small intestinal cell model,high permeability
same,metabolism in the intestinal tissue,[1]; intestinal tissue,complete metabolism
same,increase in HbF positive cells (FACS),[2],28 fold
same,concentration of maximal induction of γ-globin promoter activity,γ-globin promoter,200 µM
same,effectiveness as inducer of γ-globin promoter activity at higher concentrations,γ-globin promoter; concentrations higher than 100-200 μM,declined substantially
"COC(=O)/C=C/C(=O)O [MMF, monomethyl fumarate]",Cell viability by Trypan blue exclusion,KU812 cells,90-95%
same,"γ-globin gene expression, fold increase vs untreated",[3],2-4 fold
same,increase in HbF positive cells (FACS),[2],32 fold
same,γ/β-globin mRNA induction,[4],8 fold
same,concentration of maximal induction of γ-globin promoter activity,γ-globin promoter,1000 µM
"NC(=O)NO [HU, hydroxyurea]",γ-globin expression and HbF production in RPE cells,[5],induction of γ-globin expression and HbF production
same,OCTN1 expression,OCTN1,little to no effect
same,increase in HbF positive cells (FACS),[2],15 fold
CCN(CC)C(=O)COC(=O)/C=C/C(=O)OC [XP23829],tolerability,[6]; four oral formulations,generally well-tolerated
same,levels of MMF in the blood,[6],expected levels of MMF in the blood
